In patent US20240407363A1 (priority 2021, published 2024):
“Also recorded” adds a separate entry of the source.

Tested on: X. perforans GEV-485
Assay: Greenhouse in planta experiments, hexanoic acid soil drench, tomato bacterial spot ('Bonnie Best')
Type: in vivo
Experimental: Hexanoic acid (Hx) (>99%, Sigma Aldrich) was tested for its effect on the management of bacterial leaf spot of tomato. Stock solutions of Hx (1.0×10^4 mg/L) were prepared with sterile distilled water (SDW) and stored at 4° C. for further dilutions. Copper treatment suspensions were prepared using Kocide® 3000 (DuPont, Wilmington DE) that contains 30% metallic Cu in the form of copper hydroxide [Cu(OH)2]. For greenhouse experiments, Kocide® 3000 at the rate of 2.1 g/L and Penncozeb 75DF (United Phosphorus Inc., King of Prussia, PA) at the rate of 1.2 g/L in SDW were prepared.
The plants were then moved to a growth chamber with temperature at 28° C., 12 h photoperiod and 80% relative humidity. Fifty mL of Hx at the tested rates were applied to 3-4 weeks old plants by soil drench, 4 and 2 days prior to bacterial inoculation to prime the plants and induce basal plant defense. Kocide® 3000 and a mixture of Kocide® 3000+Penncozeb® were sprayed on the tomato plants until runoff and allowed to air dry for 4 h before bacterial inoculation. Three plants were sprayed with SDW only, as a negative control. […] Disease severity and phytotoxicity were evaluated every other day using the Horsfall-Barratt scale (Horsfall and Barratt, 1945), starting from 3 days up to 20 days post inoculation. […]

## CCCCCC(=O)O [Hexanoic acid, hexanoic acid]
512 mg/L applied only once as soil drench 1, 3, and 7 days prior to the bacterial inoculation
  bacterial spot disease (preliminary AUDPC, FIG. 9) compared to the control (UTC): did not appear to significantly reduce the bacterial spot disease
Different treatment concentrations, application two days prior to the bacterial inoculation, two-week rating period
  disease severity (AUDPC, FIG. 10) compared to the control (UTC): significantly (P<0.05) lower disease severity; also recorded: statistically significant (p<0.05) lower disease severity
